In patent US7816558B2, “Triarylcarboxylic acid derivative” (Astellas Pharma Inc., priority 2005, dated 2010):

Molecular target: T1, xanthine oxidase (derived from butter milk, by Sigma) (Bos taurus, UniProt P80457)
T1 construct: xanthine oxidase (derived from butter milk, by Sigma); purchased Sigma; host or cells: butter milk (natural source)
Assay: Xanthine oxidase inhibiting activity
Type: biochemical
Details: pterin 5 μM as substrate, isoxanthopterin light emission, room temperature; read-out: IC50 (concentration of the test compound for 50% inhibition)
Description: A test compound was dissolved in DMSO (by Nacalai) to have a concentration of 10 mM, and then just before use, its concentration was adjusted to a desired one.
The xanthine oxidase inhibitory activity of the compound of the present invention was evaluated according to a partly modified method of a method described in a reference “Free Radic. Biol. Med. 6, 607-615, 1992”. Concretely, xanthine oxidase (derived from butter milk, by Sigma) was mixed with 50 mM phosphate buffer to be 0.03 units/ml, and applied to a 96-well plate in an amount of […]. The test compound diluted to have a final concentration was added to the plate in an amount of 2 μl/well, and processed at room temperature for 20 minutes. Pterin (by Sigma) was added to it to have a final concentration of 5 μM in an amount of 50 μl/well, and reacted at room temperature for 10 minutes. Under a condition of excitation at 345 nm and emission at […] (pterin is oxidized by xanthine oxidase to give isoxanthopterin, and under the condition it emits light), the sample was analyzed using a microplate reader sapphire (by Tacan).
The light emission by isoxanthopterin in the presence or absence of xanthine oxidase was defined as 0% inhibition and 100% inhibition, respectively, and the concentration (IC50) of the test compound for 50% inhibition was computed.

T1 sequence (P80457 whole entry): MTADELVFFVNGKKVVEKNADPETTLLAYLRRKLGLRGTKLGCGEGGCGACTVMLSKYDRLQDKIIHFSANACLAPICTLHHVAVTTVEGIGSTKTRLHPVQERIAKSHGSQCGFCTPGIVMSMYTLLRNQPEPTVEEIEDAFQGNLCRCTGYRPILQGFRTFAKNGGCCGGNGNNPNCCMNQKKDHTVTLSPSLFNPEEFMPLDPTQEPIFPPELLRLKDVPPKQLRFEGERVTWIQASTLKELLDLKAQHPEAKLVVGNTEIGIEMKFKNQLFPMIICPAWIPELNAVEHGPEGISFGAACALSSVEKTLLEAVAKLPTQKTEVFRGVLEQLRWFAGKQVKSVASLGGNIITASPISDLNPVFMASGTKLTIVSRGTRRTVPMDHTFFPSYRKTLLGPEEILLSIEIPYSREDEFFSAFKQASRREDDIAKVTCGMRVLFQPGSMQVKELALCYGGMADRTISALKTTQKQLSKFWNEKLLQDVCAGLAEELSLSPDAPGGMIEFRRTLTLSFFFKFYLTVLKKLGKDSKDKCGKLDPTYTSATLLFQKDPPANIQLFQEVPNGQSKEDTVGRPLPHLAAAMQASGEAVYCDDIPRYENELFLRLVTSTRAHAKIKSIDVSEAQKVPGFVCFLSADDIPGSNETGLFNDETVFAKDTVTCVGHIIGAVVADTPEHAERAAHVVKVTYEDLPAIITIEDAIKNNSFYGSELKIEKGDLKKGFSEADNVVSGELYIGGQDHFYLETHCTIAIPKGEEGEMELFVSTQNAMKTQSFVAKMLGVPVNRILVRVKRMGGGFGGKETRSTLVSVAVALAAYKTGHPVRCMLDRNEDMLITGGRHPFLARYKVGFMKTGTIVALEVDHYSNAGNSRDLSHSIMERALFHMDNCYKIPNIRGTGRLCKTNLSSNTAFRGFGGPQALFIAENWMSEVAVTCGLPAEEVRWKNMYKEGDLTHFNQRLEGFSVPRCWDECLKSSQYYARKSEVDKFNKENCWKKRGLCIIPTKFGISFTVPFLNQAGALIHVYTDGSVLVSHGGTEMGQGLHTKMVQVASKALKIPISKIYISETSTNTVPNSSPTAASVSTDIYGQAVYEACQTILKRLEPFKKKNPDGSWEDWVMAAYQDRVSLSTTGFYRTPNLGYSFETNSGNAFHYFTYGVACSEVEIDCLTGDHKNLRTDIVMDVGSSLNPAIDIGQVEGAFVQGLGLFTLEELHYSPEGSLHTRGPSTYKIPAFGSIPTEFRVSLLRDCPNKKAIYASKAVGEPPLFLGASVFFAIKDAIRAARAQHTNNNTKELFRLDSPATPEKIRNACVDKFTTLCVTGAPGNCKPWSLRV

SMILES | IC50 [nM]
CC(C)(C)c1ccc(-c2ccc(-c3ccc(C(=O)O)s3)cc2C#N)cc1 [Example 94] | 0.5
Cc1cccc(-c2ccc(-c3nc(C)c(C(=O)O)s3)cc2C#N)c1 [Example 129, 2-(2-cyano-3′-methylbiphenyl-4-yl)-4-methyl-1,3-thiazole-5-carboxylic acid] | 0.9
COc1ccc(-c2ccc(-n3cc(C(=O)O)cn3)cc2C#N)cc1 [Example 140, 1-(2-cyano-4′-methoxybiphenyl-4-yl)-1H-pyrazole-4-carboxylic acid] | 1.4

Test system: serum uric acid level
Assay: Hypouricemic effect (rat oxonate-induced high uric acid model), test (A)
Type: in vivo
Details: Wistar rats, potassium oxonate 250 mg/kg s.c., 2 hours after oral administration, normal group 100% inhibition, control group 0%
Description: (A) For evaluating the serum uric acid level depressing capability of the compounds of the present invention, the following test was carried out using an oxonate-induced high uric acid model.
A 0.5% methyl cellulose liquid (normal group, control group) or a test compound suspended in 0.5% methyl cellulose (compound-administered group) was orally administered to 5 or 6-week-age male Wistar rats. One hour before blood collection, saline (normal group), or 250 mg/kg of potassium oxonate suspended in saline (control group, compound-administered group) was subcutaneously administered to the rats. 2 hours or 18 hours after the compound or methyl cellulose liquid administration, the blood was collected from each rat. The serum was separated from the collected blood, and the serum uric acid level was measured according to a phosphorus tungstate method (Am. J. Clin. Pathol., 28, 152-, 1957).
This test confirmed the excellent hypouricemic effect of the compounds of the present invention. For example, ED50 of the compound of Example 136 was 0.2 mg/kg in 2 hours after oral administration (for this, the serum uric acid level of the normal group was defined as 100% inhibition and the serum uric acid level of the control group was as 0% inhibition).

SMILES | ED50 [mg/kg]
Cc1nc(-c2ccc(-c3ccccc3)c(C#N)c2)sc1C(=O)O [Example 123, 2-(2-cyanobiphenyl-4-yl)-4-methyl-1,3-thiazole-5-carboxylic acid] | < 1
Cn1nc(-c2ccc(-c3ccccc3)c(C#N)c2)cc1C(=O)O [Example 146, 3-(2-cyanobiphenyl-4-yl)-1-methyl-1H-pyrazole-5-carboxylic acid] | < 1
COc1ccc(-c2ccc(-c3nc(C)c(C(=O)O)s3)cc2C#N)cc1 [Example 127, 2-(2-cyano-4′-methoxybiphenyl-4-yl)-4-methyl-1,3-thiazole-5-carboxylic acid] | < 1
N#Cc1cc(-c2ccc(C(=O)O)s2)ccc1-c1ccccc1 [Example 68, 5-(2-cyanobiphenyl-4-yl)thiophene-2-carboxylic acid] | < 1
Cc1ccc(-c2ccc(-c3nc(C)c(C(=O)O)s3)cc2C#N)cc1 [Example 124, 2-(2-cyano-4′-methylbiphenyl-4-yl)-4-methyl-1,3-thiazole-5-carboxylic acid] | < 1
N#Cc1cc(-n2cc(C(=O)O)cn2)ccc1-c1ccccc1 [Example 137, 1-(2-cyanobiphenyl-4-yl)-1H-pyrazole-4-carboxylic acid] | < 1
N#Cc1cc(-c2cc(C(=O)[O-])ccn2)ccc1-c1ccccc1.[Na+] [Example 1, sodium 2-(2-cyanobiphenyl-4-yl)isonicotinate] | < 1
COc1ccc(-c2ccc(-n3cc(C(=O)O)cn3)cc2C#N)cc1 [Example 140, 1-(2-cyano-4′-methoxybiphenyl-4-yl)-1H-pyrazole-4-carboxylic acid] | < 1
N#Cc1cc(-c2ncc(C(=O)O)s2)ccc1-c1ccccc1 [Example 136, 2-(2-cyanobiphenyl-4-yl)-1,3-thiazole-5-carboxylic acid] | 0.2
